# Values of other authors in patent US20100322961A1, “Intranasal Drug Delivery System” (priority 2007, published 2010).
# Details: pure substance; background statement
structure (smiles),measurement,value
COc1cc(CNC(=O)CCCC/C=C/C(C)C)ccc1O [capsaicin],pungency (Scoville heat units),"15,000,000-16,000,000 Scoville units"
